# Tests used:
# in vitro = conditions: human, CAR-T cells
# Nalm-6 luc = assay: CAR-T cell killing assay (luciferase viability of tumor cells)
# [1] = system: phospho-STAT panel (pSTAT3/4/5), CD3+ T cells; assay: phospho-STAT induction by IL-6, MesoScale Discovery phospho-STAT panel; assay type: cell-based, human; conditions: CD3+ T cells
# Description: CD19 CAR-T, PBMC or CD3+ T cells (AllCells) were thawed and rested 0/N at 37° C. in R10 media. Cells were seeded at 700,000 cells/well and were either untreated or treated with 100 ng/ml IL6+drug at indicated concentrations for 20 minutes at 37° C. The cells were then washed with cold PBS and followed by 60 μl of Tris lysis buffer (provided by MSD) for 30 minutes on ice. Lysates were collected by spin down for 10 minutes at >10,000 rpm. 25 μl/well per condition was used for MesoScale Discovery (MSD) assay using the phospho-STAT panel (pSTAT3/4/5) from MesoScale Discovery following the manufacturer's protocol. pSTAT panel plates were blocked with 150 μl of blocker A solution for 1 hr at RT with shaking. Plates were washed three times with 1× Tris wash buffer. 25 μl of lysate samples were added per well, incubated 2 hr at room temperature or at 4° C. overnight. Plates were washed 3 times with 1× tris wash buffer and then 25 μl of detection antibody solution were added to each well and incubated for 1 hr at room temperature with shaking. Plates were washed and 1× read buffer added to each well and plates were read on the MSD instrument.
smiles,measurement,setting,value
CCS(=O)(=O)N1CC(CC#N)(n2cc(-c3ncnc4[nH]ccc34)cn2)C1 [baricitinib],"viability at 0 day, 5 nM",in vitro,75%
same,"viability at 0 day, 10 nM",in vitro,75%
same,"viability at 4 day, 5 nM",in vitro,67.4%
same,"viability at 4 day, 10 nM",in vitro,58.9%
same,"viability at 8 day, 5 nM",in vitro,72.7%
same,"viability at 12 day, 5 nM",in vitro,82.3%
same,"viability at 12 day, 10 nM",in vitro,71.2%
same,Mean tumor cell death (%),"Nalm-6 luc; E:T ratio 1:1, dose 10 nM",97.9%
same,Mean tumor cell death (%),"Nalm-6 luc; E:T ratio 1:1, dose 20 nM",97.5%
same,Mean tumor cell death (%),"Nalm-6 luc; E:T ratio 1:1, dose 40 nM",85.7%
same,Mean tumor cell death (%),"Nalm-6 luc; E:T ratio 1:1, dose 60 nM",96.2%
same,Mean tumor cell death (%),"Nalm-6 luc; E:T ratio 1:1, dose 80 nM",96%
same,Mean tumor cell death (%),"Nalm-6 luc; E:T ratio 1:1, dose 100 nM",93.1%
same,Mean tumor cell death (%),"Nalm-6 luc; E:T ratio 1:3, dose 10 nM",65.6%
same,Mean tumor cell death (%),"Nalm-6 luc; E:T ratio 1:3, dose 20 nM",65%
same,Mean tumor cell death (%),"Nalm-6 luc; E:T ratio 1:3, dose 40 nM",67.4%
same,Mean tumor cell death (%),"Nalm-6 luc; E:T ratio 1:3, dose 60 nM",59%
same,Mean tumor cell death (%),"Nalm-6 luc; E:T ratio 1:3, dose 80 nM",55%
same,Mean tumor cell death (%),"Nalm-6 luc; E:T ratio 1:3, dose 100 nM",31.1%
same,Mean tumor cell death (%),"Nalm-6 luc; E:T ratio 1:9, dose 10 nM",25.4%
same,Mean tumor cell death (%),"Nalm-6 luc; E:T ratio 1:9, dose 20 nM",27.6%
same,Mean tumor cell death (%),"Nalm-6 luc; E:T ratio 1:9, dose 40 nM",26.1%
same,Mean tumor cell death (%),"Nalm-6 luc; E:T ratio 1:9, dose 60 nM",21.1%
same,Mean tumor cell death (%),"Nalm-6 luc; E:T ratio 1:9, dose 80 nM",3.97%
same,Mean tumor cell death (%),"Nalm-6 luc; E:T ratio 1:9, dose 100 nM",5.5%
same,pSTAT3,"[1]; lower dose titration, IL-6 + drug 3.125 nM, MSD signal (No stim. 123, IL-6 alone 5767)",5208
same,pSTAT4,"[1]; lower dose titration, IL-6 + drug 3.125 nM, MSD signal (No stim. 281, IL-6 alone 3624)",2961
same,pSTAT5,"[1]; lower dose titration, IL-6 + drug 3.125 nM, MSD signal (No stim. 324, IL-6 alone 2352)",1408
same,pSTAT3,"[1]; lower dose titration, IL-6 + drug 6.25 nM, MSD signal (No stim. 123, IL-6 alone 5767)",2798
same,pSTAT4,"[1]; lower dose titration, IL-6 + drug 6.25 nM, MSD signal (No stim. 281, IL-6 alone 3624)",2801
same,pSTAT5,"[1]; lower dose titration, IL-6 + drug 6.25 nM, MSD signal (No stim. 324, IL-6 alone 2352)",1243
same,pSTAT3,"[1]; lower dose titration, IL-6 + drug 12.5 nM, MSD signal (No stim. 123, IL-6 alone 5767)",2528
same,pSTAT4,"[1]; lower dose titration, IL-6 + drug 12.5 nM, MSD signal (No stim. 281, IL-6 alone 3624)",1741
same,pSTAT5,"[1]; lower dose titration, IL-6 + drug 12.5 nM, MSD signal (No stim. 324, IL-6 alone 2352)",827
same,pSTAT3,"[1]; lower dose titration, IL-6 + drug […] nM, MSD signal (No stim. 123, IL-6 alone 5767)",1441
same,pSTAT4,"[1]; lower dose titration, IL-6 + drug […] nM, MSD signal (No stim. 281, IL-6 alone 3624)",1359
same,pSTAT5,"[1]; lower dose titration, IL-6 + drug […] nM, MSD signal (No stim. 324, IL-6 alone 2352)",710
same,pSTAT3,"[1]; lower dose titration, IL-6 + drug 50 nM, MSD signal (No stim. 123, IL-6 alone 5767)",702
same,pSTAT4,"[1]; lower dose titration, IL-6 + drug 50 nM, MSD signal (No stim. 281, IL-6 alone 3624)",1059
same,pSTAT5,"[1]; lower dose titration, IL-6 + drug 50 nM, MSD signal (No stim. 324, IL-6 alone 2352)",586
same,pSTAT3,"[1]; lower dose titration, IL-6 + drug 100 nM, MSD signal (No stim. 123, IL-6 alone 5767)",288
same,pSTAT4,"[1]; lower dose titration, IL-6 + drug 100 nM, MSD signal (No stim. 281, IL-6 alone 3624)",690
same,pSTAT5,"[1]; lower dose titration, IL-6 + drug 100 nM, MSD signal (No stim. 324, IL-6 alone 2352)",471
C[C@@H]1C[C@H]2[C@@H]3CCC4=CC(=O)C=C[C@]4(C)[C@@]3(F)[C@@H](O)C[C@]2(C)[C@@]1(O)C(=O)CO [dexamethasone],"viability at 0 day, 50 nM",in vitro,75%
same,"viability at 0 day, 100 nM",in vitro,75%
same,"viability at 4 day, 50 nM",in vitro,65.9%
same,"viability at 4 day, 100 nM",in vitro,52.8%
same,"viability at 8 day, 50 nM",in vitro,53.8%
same,"viability at 8 day, 100 nM",in vitro,56.6%
same,"viability at 12 day, 50 nM",in vitro,67.8%
same,"viability at 12 day, 100 nM",in vitro,56.5%
same,Mean tumor cell death (%),"Nalm-6 luc; E:T ratio 1:1, dose 10 nM",98.09%
same,Mean tumor cell death (%),"Nalm-6 luc; E:T ratio 1:1, dose 100 nM",92.30%
same,Mean tumor cell death (%),"Nalm-6 luc; E:T ratio 1:1, dose 250 nM",97.15%
same,Mean tumor cell death (%),"Nalm-6 luc; E:T ratio 1:3, dose 10 nM",34.66%
same,Mean tumor cell death (%),"Nalm-6 luc; E:T ratio 1:3, dose 100 nM",19.94%
same,Mean tumor cell death (%),"Nalm-6 luc; E:T ratio 1:3, dose 250 nM",20.38%
same,Mean tumor cell death (%),"Nalm-6 luc; E:T ratio 1:9, dose 10 nM",7.08%
same,Mean tumor cell death (%),"Nalm-6 luc; E:T ratio 1:9, dose 100 nM",3.02%
same,Mean tumor cell death (%),"Nalm-6 luc; E:T ratio 1:9, dose 250 nM",2.48%
same,pSTAT3,"[1]; 100 ng/ml IL-6 + drug 10 uM, 20 min, MSD signal (No stim. 689, IL-6 alone 33641)",25688
same,pSTAT4,"[1]; 100 ng/ml IL-6 + drug 10 uM, 20 min, MSD signal (No stim. 1964, IL-6 alone 15405)",11588
same,pSTAT5,"[1]; 100 ng/ml IL-6 + drug 10 uM, 20 min, MSD signal (No stim. 9210, IL-6 alone 17743)",14850
same,pSTAT3,"[1]; IL-6 + drug 0.125 uM, MSD signal (No stim. 689, IL-6 alone 33641)",26776
same,pSTAT4,"[1]; IL-6 + drug 0.125 uM, MSD signal (No stim. 1964, IL-6 alone 15405)",14052
same,pSTAT5,"[1]; IL-6 + drug 0.125 uM, MSD signal (No stim. 9210, IL-6 alone 17743)",16019
same,pSTAT3,"[1]; IL-6 + drug 0.5 uM, MSD signal (No stim. 689, IL-6 alone 33641)",28004
same,pSTAT4,"[1]; IL-6 + drug 0.5 uM, MSD signal (No stim. 1964, IL-6 alone 15405)",15286
same,pSTAT5,"[1]; IL-6 + drug 0.5 uM, MSD signal (No stim. 9210, IL-6 alone 17743)",18936
same,pSTAT3,"[1]; IL-6 + drug 1 uM, MSD signal (No stim. 689, IL-6 alone 33641)",27312
same,pSTAT4,"[1]; IL-6 + drug 1 uM, MSD signal (No stim. 1964, IL-6 alone 15405)",15357
same,pSTAT5,"[1]; IL-6 + drug 1 uM, MSD signal (No stim. 9210, IL-6 alone 17743)",18209
same,pSTAT3,"[1]; IL-6 + drug 5 uM, MSD signal (No stim. 689, IL-6 alone 33641)",24869
same,pSTAT4,"[1]; IL-6 + drug 5 uM, MSD signal (No stim. 1964, IL-6 alone 15405)",11925
same,pSTAT5,"[1]; IL-6 + drug 5 uM, MSD signal (No stim. 9210, IL-6 alone 17743)",15761

# Reference: US12252701B2, “Chimeric antigen receptor T cell therapy” (KITE PHARMA, INC., priority 2020, dated 2025)
